The nature of data set [1]: FaSSIF solubility (Fasted State Simulated Intestinal Fluid). Format: physicochemical. To be noted: thermodynamic from solid, FaSSIF pH 6.5, 4 h equilibration at room temperature, dynamic range 1-1000 μg/mL. On the procedure:
1 mL of FaSSIF buffer (3 mM sodium taurocholate, 0.75 mM lecithin in sodium phosphate buffer at pH 6.5) was added to manually weighed 1 mg of the solid compound in a 4 mL vial. […] The residual solid was removed by filtration. The supernatant solution was quantified by HPLC-UV using single point calibration of a known concentration of the compound in DMSO. The dynamic range of the assay was 1-1000 μg/mL.

A further data set concerns the target human CGAS (157-522) (Homo sapiens, UniProt Q8N884). Put plainly: biochemical.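 Further: biochemical enzyme reaction, 2′3′-cGAMP product measured by RapidFire mass spectrometry (MRM) normalised to c-di-UMP internal standard, inhibition of product formation relative to high and low control wells.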
The test system of the next data set is CGAS. Put plainly: CGAS whole blood cytokine release assay (384-well, BacMam stimulation, IP-10 by cytometric bead array). To be noted: Homo sapiens, 6 h; read-out: hWB pXC50 (converted). It is filed as cell-based. The method, boiled down:
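Heparinised human donor whole blood mixed with serially diluted compound plus Null BacMam stimulus, incubated 6 h at 37° C, 5% CO2. Supernatant IP-10 quantified by cytometric bead array on flow cytometer (488 nm excitation, 585/40 nm emission); inhibition of IP-10 calculated.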

Structures can show the parent of a compound that is named as a salt. Some results are limits rather than exact numbers.

Sequence of human CGAS (157-522) (Q8N884 157-522): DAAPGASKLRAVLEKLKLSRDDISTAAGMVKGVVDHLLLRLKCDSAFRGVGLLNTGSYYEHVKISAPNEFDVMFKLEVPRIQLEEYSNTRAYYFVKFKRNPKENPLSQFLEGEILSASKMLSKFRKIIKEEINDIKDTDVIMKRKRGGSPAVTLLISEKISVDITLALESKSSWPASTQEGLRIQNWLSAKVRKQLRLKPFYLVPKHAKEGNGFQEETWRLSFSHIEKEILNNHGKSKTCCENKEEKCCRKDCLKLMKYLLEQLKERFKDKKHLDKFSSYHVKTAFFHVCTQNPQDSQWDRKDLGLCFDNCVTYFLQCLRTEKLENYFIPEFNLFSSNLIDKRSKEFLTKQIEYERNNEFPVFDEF
Procedure for human CGAS (157-522): Compounds were serially diluted 2, 3, or 4-fold in neat DMSO to generate 11-point dose response curves and then 250 nL compound or DMSO solution was transferred to Greiner 384-well V-bottom assay plates (Catalog #781280) using an Echo acoustic dispenser (Labcyte). A solution of 150 μM ATP, 150 μM GTP, 20 μM pppGpA (GTP-2′5′-AMP, custom synthesis from ChemGenes), and 10 μg/mL sheared salmon sperm DNA (Sigma, Catalog #D1626) in assay buffer (20 mM Trizma, pH 7.5, 10 mM magnesium chloride, 0.3 mM CHAPS, and 0.01% (w/v) bovine serum albumin) was added to columns 1-17, 19-24 of the plate at 12.5 μL/well using a Combi liquid handler (ThermoFisher). A 12.5 μL/well low control solution containing 150 μM ATP, 150 μM GTP, 20 μM pppGpA in assay buffer was added to column 18 using the Combi. A 12.5 μL/well solution of 10-100 nM human CGAS (157-522) in assay buffer was then added to all wells of the plate using the Combi. […] Reactions were quenched by added 50 μL/well of 0.5% (v/v) trifluoroacetic acid (TFA) in mass spectrometry grade deionized water containing 5 μM cyclic-di-UMP (ci-di-UMP; Invivogen Catalog #tlrl-cdu) as the internal standard (IS). Plates were centrifuged for 1 min and then quenched reactions were analyzed using a RF-MS 300 system operating in a Multiple Reaction Monitoring (MRM) detection mode.
Samples (10 μL injection volume) were passed over a silica C18/type C solid phase extraction (SPE) cartridge for analyte (2′3′-cyclic guanosine monophosphate adenosine monophosphate (2′3′-cGAMP), product of biochemical reaction)/pppGpA/c-di-UMP IS adsorption. Adsorbed samples were desalted for 3000 ms using a 100% water eluent A/desalting solution. Afterwards, desalted samples were eluted using a 0.5% TFA in 20%/80% acetonitrile/water eluent B/elution solution directly into either a Sciex 4000, 5000 or 5500 triple quadrupole mass spectrometer (QQQ-MS) for MRM analyte/IS detection. QQQ-MS detection conditions were as follow: scan type: MRM; curtain (CUR) gas: 30 psi; nebulizer (GS1) gas: 50 psi; drying (GS2) gas: 60 psi; collisionally activated dissociation (CAD) gas: 12 relative setting; precursor ion (Q1) masses: 2′3′-cGAMP: m/z 675.1 Da/pppGpA: m/z 853.0 Da/c-di-UMP: m/z 613.1 Da; fragment ion (Q3) masses: 2′3′-cGAMP: m/z 524.1 Da/pppGpA: m/z 702.0 Da/c-di-UMP: 307.1 Da; declustering potentials (DPs): 2′3′-cGAMP: +81 V/pppGpA: +85 V/c-di-UMP: +85 V; entrance potential: +10 V (all analytes); collision energies (CEs): 2′3′-cGAMP: +33 V/pppGpA: +36 V/c-di-UMP: +35 V; collision cell exit potential (CXP): +10 V (all analytes); interface heater (Sciex 4000/5000 only): on; Q1 resolution: unit (all analyte); Q3 resolution: unit (all analytes). The area under the curve (AUC) for all analytes was obtained using the RapidFire Integrator software application to calculate AUC-2′3′-cGAMP/AUC-c-di-UMP intensity ratio. Percent product formation was calculated by comparison to column 6 (high control)/column 18 (low control) responses. The % product inhibition was calculated as follows:
[formula] where A is the minimum response, B is the maximum response, C is the log10*XC50, D is the slope factor, and x is the log10 compound concentration [M] in ABASE XE.

In general, solubility refers to how much of the substance goes into solution per volume. A low value points to a poorly soluble substance. Compound `CC(C)[C@H](N)C(=O)OCn1cnc(-c2c(-c3nc(C(F)(F)F)nn3COC(=O)[C@@H](N)C(C)C)nc3ncccn23)c1` [Example 24, (4-{2-[1-({[(2S)-2-amino-3-methylbutanoyl]oxy}methyl)-3-(trifluoromethyl)-1H-1,2,4-triazol-5-yl]imidazo[1,2-a]pyrimidin-3-yl}-1H-imidazol-1-yl)methyl (2S)-2-amino-3-methylbutanoate, 2 trifluoroacetic acid salt] displayed a solubility at 4 h in data set [1] of 324 µg/mL. Further, the IC50 at human CGAS (157-522) was 63.1 nM.

`O=P(O)(O)OCn1nc(C(F)(F)F)nc1-c1nc2ncc(F)cn2c1-c1cnc[nH]1` [Example 34, ({5-[6-fluoro-3-(1H-imidazol-5-yl)imidazo[1,2-a]pyrimidin-2-yl]-3-(trifluoromethyl)-1H-1,2,4-triazol-1-yl}methoxy)phosphonic acid] showed a solubility at 4 h in data set [1] of over 1000 µg/mL. Moreover, the IC50 against human CGAS (157-522) was 794 nM.

In the case of `CCOCCOCc1cnc2nc(-c3nc(C(F)(F)F)n[nH]3)c(-c3cnc[nH]3)n2c1` [Example 129, 5-{6-[(2-ethoxyethoxy)methyl]-3-(1H-imidazol-5-yl)imidazo[1,2-a]pyrimidin-2-yl}-3-(trifluoromethyl)-1H-1,2,4-triazole], the IC50 with CGAS is 316 nM; against human CGAS (157-522), 7.94 nM.

For the compound `FC(F)(F)c1n[nH]c(-c2nc3nc4c(cn3c2-c2cnc[nH]2)CCC4)n1` [Example 133, 12-(1H-imidazol-5-yl)-11-[3-(trifluoromethyl)-1H-1,2,4-triazol-5-yl]-1,8,10-triazatricyclo[7.3.0.0^3,^7]dodeca-2,7,9,11-tetraene], the IC50 in the data set with CGAS is 200 nM; against human CGAS (157-522), 3.16 nM.

Consider `FC(F)(F)c1n[nH]c(-c2nc3nc4c(cn3c2-c2cnc[nH]2)CCCC4)n1` [Example 134, 5-[3-(1H-imidazol-5-yl)-6H,7H,8H,9H-imidazo[2,1-b]quinazolin-2-yl]-3-(trifluoromethyl)-1H-1,2,4-triazole], for which the IC50 in the data set on CGAS is 398 nM; against human CGAS (157-522), 3.98 nM.

For the compound `FC(F)(F)c1n[nH]c(-c2nc3ncc(OCC4CCOC4)cn3c2-c2c[nH]cn2)n1` (centres unmarked) [Example 135, 5-[3-(1H-imidazol-4-yl)-6-[(oxolan-3-yl)methoxy]imidazo[1,2-a]pyrimidin-2-yl]-3-(trifluoromethyl)-1H-1,2,4-triazole], the IC50 with CGAS was 631 nM; at human CGAS (157-522), 3.16 nM.

Turning to `FC(F)(F)c1n[nH]c(-c2nc3nc4c(cn3c2-c2c[nH]cn2)C2CCC(C4)O2)n1` (centres unmarked) [Example 136, 5-(1H-imidazol-4-yl)-6-[3-(trifluoromethyl)-1H-1,2,4-triazol-5-yl]-15-oxa-4,7,9-triazatetracyclo[10.2.1.0^2,^10.0^4,^8]pentadeca-2,5,7,9-tetraene], the IC50 with CGAS was 316 nM; on human CGAS (157-522), 7.94 nM.

As to `FC(F)(F)c1n[nH]c(-c2nc3ncc(COCCC4CCOC4)cn3c2-c2cnc[nH]2)n1` (centres unmarked) [Example 139, 5-[3-(1H-imidazol-5-yl)-6-{[2-(oxolan-3-yl)ethoxy]methyl}imidazo[1,2-a]pyrimidin-2-yl]-3-(trifluoromethyl)-1H-1,2,4-triazole], the figures for the IC50 with CGAS and on human CGAS (157-522) were 398 nM and 7.94 nM, respectively.

Regarding `FC(F)(F)c1n[nH]c(-c2nc3ncc(COCCCC4CCCO4)cn3c2-c2cnc[nH]2)n1` (centres unmarked) [Example 140, 5-[3-(1H-imidazol-5-yl)-6-{[3-(oxolan-2-yl)propoxy]methyl}imidazo[1,2-a]pyrimidin-2-yl]-3-(trifluoromethyl)-1H-1,2,4-triazole], the IC50 is 794 nM in the data set with CGAS and 12.6 nM at human CGAS (157-522).

On to `FC(F)(F)c1n[nH]c(-c2nc3ncc(COCCC4CCCO4)cn3c2-c2cnc[nH]2)n1` (centres unmarked) [Example 141, 5-[3-(1H-imidazol-5-yl)-6-{[2-(oxolan-2-yl)ethoxy]methyl}imidazo[1,2-a]pyrimidin-2-yl]-3-(trifluoromethyl)-1H-1,2,4-triazole], for which the IC50 in the data set with CGAS was 316 nM; at human CGAS (157-522), 3.98 nM.

Consider `OCCCCCOCc1cnc2nc(-c3nc(C(F)(F)F)n[nH]3)c(-c3cnc[nH]3)n2c1` [Example 142, 5-{[3-(1H-imidazol-5-yl)-2-[3-(trifluoromethyl)-1H-1,2,4-triazol-5-yl]imidazo[1,2-a]pyrimidin-6-yl]methoxy}pentan-1-ol], for which the results for the IC50 with CGAS and at human CGAS (157-522) were 794 nM and 3.98 nM, respectively.

In the case of `CC(COCc1cnc2nc(-c3nc(C(F)(F)F)n[nH]3)c(-c3c[nH]cn3)n2c1)n1ccnc1` (centres unmarked) [Example 143, 5-(6-{[2-(1H-imidazol-1-yl)propoxy]methyl}-3-(1H-imidazol-4-yl)imidazo[1,2-a]pyrimidin-2-yl)-3-(trifluoromethyl)-1H-1,2,4-triazole], the IC50 with CGAS is 2510 nM; at human CGAS (157-522), 3.98 nM.

Take `FC(F)(F)c1n[nH]c(-c2nc3ncc(COCCC4COCCO4)cn3c2-c2c[nH]cn2)n1` (centres unmarked) [Example 145, 5-(6-{[2-(1,4-dioxan-2-yl)ethoxy]methyl}-3-(1H-imidazol-4-yl)imidazo[1,2-a]pyrimidin-2-yl)-3-(trifluoromethyl)-1H-1,2,4-triazole]: the IC50 in the data set with CGAS was 1000 nM; on human CGAS (157-522), 10 nM.

Turning to `FC(F)(F)c1n[nH]c(-c2nc3ncc(COCCn4cccn4)cn3c2-c2c[nH]cn2)n1` [Example 146, 5-[3-(1H-imidazol-4-yl)-6-{[2-(1H-pyrazol-1-yl)ethoxy]methyl}imidazo[1,2-a]pyrimidin-2-yl]-3-(trifluoromethyl)-1H-1,2,4-triazole], the IC50 in the data set with CGAS is 2000 nM; on human CGAS (157-522) it was 6.31 nM.

Regarding `CC(=O)N1CCC(COCc2cnc3nc(-c4nc(C(F)(F)F)n[nH]4)c(-c4c[nH]cn4)n3c2)C1` (centres unmarked) [Example 149, 1-[3-({[3-(1H-imidazol-4-yl)-2-[3-(trifluoromethyl)-1H-1,2,4-triazol-5-yl]imidazo[1,2-a]pyrimidin-6-yl]methoxy}methyl)pyrrolidin-1-yl]ethan-1-one], the values for the IC50 in the data set with CGAS and against human CGAS (157-522) were 10000 nM and 10 nM, respectively.

In the case of `CC(C)(COCc1cnc2nc(-c3nc(C(F)(F)F)n[nH]3)c(-c3c[nH]cn3)n2c1)n1ccnc1` [Example 150, 5-(6-{[2-(1H-imidazol-1-yl)-2-methylpropoxy]methyl}-3-(1H-imidazol-4-yl)imidazo[1,2-a]pyrimidin-2-yl)-3-(trifluoromethyl)-1H-1,2,4-triazole], the IC50 was 5010 nM with CGAS and 5.01 nM on human CGAS (157-522).

In the case of `CCCOc1cnc2nc(-c3nc(C(F)(F)F)n[nH]3)c(-c3cnc[nH]3)n2c1` [Example 154, 5-[3-(1H-imidazol-5-yl)-6-propoxyimidazo[1,2-a]pyrimidin-2-yl]-3-(trifluoromethyl)-1H-1,2,4-triazole], the figures for the IC50 in the data set on CGAS and at human CGAS (157-522) were 501 nM and 3.98 nM, respectively.

Take `FC(F)(F)c1n[nH]c(-c2nc3ncc(COCC4CC45CCOC5)cn3c2-c2c[nH]cn2)n1` (centres unmarked) [Example 155, 5-[3-(1H-imidazol-4-yl)-6-[{{5-oxaspiro[2.4]heptan-1-yl}methoxy)methyl]imidazo[1,2-a]pyrimidin-2-yl]-3-(trifluoromethyl)-1H-1,2,4-triazole]: the IC50 in the data set on CGAS is 501 nM; against human CGAS (157-522), 7.94 nM.

For the compound `CC1COC(COCc2cnc3nc(-c4nc(C(F)(F)F)n[nH]4)c(-c4c[nH]cn4)n3c2)C1` (centres unmarked) [Example 156, 5-[3-(1H-imidazol-4-yl)-6-{[(4-methyloxolan-2-yl)methoxy]methyl}imidazo[1,2-a]pyrimidin-2-yl]-3-(trifluoromethyl)-1H-1,2,4-triazole], the IC50 with CGAS is 631 nM; against human CGAS (157-522) it was 10 nM.

With `FC(F)(F)c1n[nH]c(-c2nc3ncc(COC4CCC4)cn3c2-c2c[nH]cn2)n1` [Example 157, 5-[6-(cyclobutoxymethyl)-3-(1H-imidazol-4-yl)imidazo[1,2-a]pyrimidin-2-yl]-3-(trifluoromethyl)-1H-1,2,4-triazole], the IC50 in the data set on CGAS is 251 nM; against human CGAS (157-522), 2.51 nM.

As to `FC(F)(F)COc1cnc2nc(-c3nc(C(F)(F)F)n[nH]3)c(-c3cnc[nH]3)n2c1` [Example 160, 5-[3-(1H-imidazol-5-yl)-6-(2,2,2-trifluoroethoxy)imidazo[1,2-a]pyrimidin-2-yl]-3-(trifluoromethyl)-1H-1,2,4-triazole], the values for the IC50 with CGAS and against human CGAS (157-522) were 398 nM and 5.01 nM, respectively.

As for `FC(F)(F)c1n[nH]c(-c2nc3ncc(OC4CCOC4)cn3c2-c2cnc[nH]2)n1` (centres unmarked) [Example 161, 5-[3-(1H-imidazol-5-yl)-6-(oxolan-3-yloxy)imidazo[1,2-a]pyrimidin-2-yl]-3-(trifluoromethyl)-1H-1,2,4-triazole], the IC50 in the data set on CGAS was 251 nM; on human CGAS (157-522), 5.01 nM.

In the case of `FC(F)CN1CC(Oc2cnc3nc(-c4nc(C(F)(F)F)n[nH]4)c(-c4cnc[nH]4)n3c2)C1` [Example 162, 5-(6-{[1-(2,2-difluoroethyl)azetidin-3-yl]oxy}-3-(1H-imidazol-5-yl)imidazo[1,2-a]pyrimidin-2-yl)-3-(trifluoromethyl)-1H-1,2,4-triazole], the IC50 with CGAS was 1000 nM; against human CGAS (157-522), 7.94 nM.

With `CCOc1cnc2nc(-c3nc(C(F)(F)F)n[nH]3)c(-c3cnc[nH]3)n2c1` [Example 163, 5-[6-ethoxy-3-(1H-imidazol-5-yl)imidazo[1,2-a]pyrimidin-2-yl]-3-(trifluoromethyl)-1H-1,2,4-triazole], the IC50 with CGAS is 794 nM; on human CGAS (157-522), 10 nM.

Take `COC(C)c1cnc2nc(-c3nc(C(F)(F)F)n[nH]3)c(-c3c[nH]cn3)n2c1` (centres unmarked) [Example 165, 5-[3-(1H-imidazol-4-yl)-6-(1-methoxyethyl)imidazo[1,2-a]pyrimidin-2-yl]-3-(trifluoromethyl)-1H-1,2,4-triazole]: the IC50 with CGAS was 200 nM; on human CGAS (157-522), 6.31 nM.
